Results published in US20160271155A1, “Vitamin Formulations” (NESTEC S.A., priority 2013, published 2016).

Assays:
[1] = Particle size of B9:stevioside solutions; assay type: physicochemical; conditions: Homogenization for 5 min and heat at 80° for 5 min; no unit in table (b98 speaks of nm)
Excerpt: In certain instances, the stevioside: B9 complex comprises a nanoparticle, or a nanomicelle, with a characteristic size distribution of approximately 2 nm to about 4 nanometers. This size, along with their physical and chemical properties, is believed to be important regarding their bioavailability enhancement properties. Nanoparticle size distribution can be measured using Dynamic Light Scattering (DLS).

Caco-2 cell monolayer = assay: Absorption assessment in Caco-2 cell monolayer; assay type: in vitro ADME
Excerpt: The Caco-2 cell monolayer model is the standard for predicting human oral absorption. The test samples included: B9:stevioside at 1:0; 1:4; 1:10 and 1:20.
Table 4 tabulates the permeability of methylfolate calcium (B9) in Caco-2 monolayer cell culture.

[2] = Absorption assessment in a rat model (oral pharmacokinetics); assay type: in vivo, Sprague Dawley rat; conditions: rats, oral gavage
Excerpt: Each group (formulation) had 8 rats (n=8).
Vertical bars represent one standard error of the means (n=8).
The table contains various pharmacokinetic parameters in rats orally administered with various methylfolate Ca (B9) formulations. Shown as Average±SD (% over the 1:0 control formulation).

[3] = Concentration of B9 in water and solution appearance at B9:stevioside ratios (HPLC); conditions: for Solution Appearance: 15 mg/mL B9 in water
Method: Vitamin B9 (5-methyl folate, MW 459.46) was formulated using stevioside to form a complex.
All water solutions were prepared to contain 15 mg/mL B9 and filtered before HPLC analysis.

[4] = dose equivalent to 19 mg/70 kg person, n=8, Average±SD

Particle Size MN [1]: 1,865
Particle Size MV [1]: 1,917
permeability in Caco-2 cell monolayer assay (Caco-2 cell monolayer; Caco-2 monolayer): permeable
Permeation enhancement (over 1:0) (Caco-2 cell monolayer; Caco-2 monolayer, 76 μg/mL B9, 2 hr): 1.00
Papp (A-B) (Caco-2 cell monolayer; Caco-2 monolayer, 76 μg/mL B9, assay duration 2 hr): 5.89 ± 0.245 10^−6 · cm· s^−1
predicted oral absorption (Caco-2 cell monolayer; predicted from the Caco-2 value): 70-80%
Caco-2 value (rounded) (Caco-2 cell monolayer; text summary of Table 4, unit not given): 6
AUC0-∞, % over the 1:0 control formulation ([2]; 19 mg/70 kg person equivalent): (100) %
AUC^0-12, % over the 1:0 control formulation ([2]; 19 mg/70 kg person equivalent): (100) %
CL, % over the 1:0 control formulation ([2]; 19 mg/70 kg person equivalent): (100) %
Cmax, % over the 1:0 control formulation ([2]; 19 mg/70 kg person equivalent): (100) %
MRT0-∞, % over the 1:0 control formulation ([2]; 19 mg/70 kg person equivalent): (100) %
T1/2, % over the 1:0 control formulation ([2]; 19 mg/70 kg person equivalent): (100) %
Tmax, % over the 1:0 control formulation ([2]; 19 mg/70 kg person equivalent): (100) %
Vss, % over the 1:0 control formulation ([2]; 19 mg/70 kg person equivalent): (100) %
CL [2, 4]: 0.69 ± 0.06 mL/h kg^−1
Cmax [2, 4]: 630.00 ± 49.55 ng/mL
MRT0-∞ [2, 4]: 12.41 ± 2.40 h
T1/2 [2, 4]: 8.60 ± 1.92 h
Tmax [2, 4]: 1.59 ± 0.36 h
Vss [2, 4]: 7.70 ± 0.95 mL/kg
Solution Appearance ([3]; Homogenization for 5 min and heat at 80° for 5 min): Suspension
Concentration (mg/mL in water) ([3]; Homogenization for 5 min and heat at 80° for 5 min, prepared to contain 15 mg/mL B9, filtered before HPLC): 9.2 mg/mL
Solution Appearance ([3]; No homogenization or heat): Suspension
SMILES: CN1c2c(nc(N)[nH]c2=O)NCC1CNc1ccc(C(=O)N[C@@H](CCC(=O)[O-])C(=O)O)cc1.CN1c2c(nc(N)[nH]c2=O)NCC1CNc1ccc(C(=O)N[C@@H](CCC(=O)[O-])C(=O)O)cc1.[Ca+2] (stereo partly drawn) [B9:ST 1:0]
